This is an account of results in patent US20140243403A1, “TREATING COLORECTAL, PANCREATIC, AND LUNG CANCER” (The General Hospital Corporation, priority 2011, published 2014).

Experiment [1] deals with TOP-FLASH reporter in YAPC cells. Kind of experiment: TOP-FLASH reporter in YAPC PDAC cells. It is filed as cell-based. The note with it: KRAS-dependent YAPC cells. From the text: (§1) (E) TOP-FLASH reporter activity in KRAS mutant PDAC cell lines following inhibition of GSK-3 kinase with increasing concentrations of the small molecule inhibitor BIO. PANC-1 are KRAS-independent cells and YAPC are KRAS-dependent cells. Luminescence counts (photons/sec) are plotted on the y-axis. Data are representative of three independent experiments+/−SEM.
(§2) (F) TOP-FLASH reporter dose-response relationships in PANC-1 and YAPC cells following combined treatment with GSK-3 and TAK1 inhibitors (BIO and 5Z-7-Oxozeaenok respectively). Luminescence counts (photons/sec) are plotted on the y-axis. Data are represented as the means of triplicates+/−SEM.
(§3) To further test the role of Wnt signaling in this context, experiments were performed using two KRAS mutant pancreatic cancer (PDAC) cell lines, PANC-1 and YAPC, which are APC wild-type. PANC-1 cells are KRAS-independent, whereas YAPC cells are KRAS-dependent, a distinction that has been linked to increased KRAS signaling in YAPC cells (Singh et al., 2009). […] In contrast, PANC-1 cells undergo stronger induction of TOP-FLASH activity with combined GSK-3 and TAK1 inhibition (FIG. 11F, […]). […] Finally, a constitutively-activated mutant of β-catenin (CTNNB1-CA) containing S33Y and S45A missense mutations was introduced into KRAS-dependent SW620 cells. This mutant caused partial losses in both KRAS and TAK1 dependencies (FIGS. 13A-C). […]

In experiment [2] the test system is TOP-FLASH reporter in PANC-1 cells. Description: TOP-FLASH reporter in PANC-1 PDAC cells. The note with it: KRAS-independent PANC-1 cells. It is filed as cell-based.
Text: as §1, §2, §3

Take `O=C1Nc2cc(Br)ccc2/C1=C1/Nc2ccccc2/C1=N\O` [BIO]: the TOP-FLASH reporter induction entry in experiment [1] is recorded as “strong, dose-dependent TOP-FLASH reporter induction”; in experiment [2], “weak induction”.
